Assay [1] addresses T1, vanilloid receptor (VR1) (Homo sapiens, UniProt Q8NER1).
T1 construct: expressed in transfected cells; host or cells: CHO K1 cells (ECACC), stably transfected
As to the kind of experiment: FLIPR Ca2+ influx assay on CHO K1 cells transfected with the VR1 gene (pharmacological method II). The format is cell-based. Particulars: table 4; capsaicin; read-out: Ki (human) Cap. The source says:
In this FLIPR assay, the influx of Ca^2+ is quantified with the assistance of a Ca^2+-sensitive dye (type Fluo-4, Molecular Probes Europe BV, Leiden, Netherlands) in a Fluorescent Imaging Plate Reader (FLIPR, Molecular Devices, Sunnyvale, USA) as described below.
II. Functional Investigations on the Vanilloid Receptor (VR1)
The agonistic or antagonistic action of the substances to be investigated on the vanilloid receptor (VR1) may also be determined with the following assay. According to this assay, the influx of Ca^2+ through the channel is quantified with the assistance of a Ca^2+-sensitive dye (type Fluo-4, Molecular Probes Europe BV, Leiden, Netherlands) in a Fluorescent Imaging Plate Reader (FLIPR, Molecular Devices, Sunnyvale, USA).
Chinese hamster ovary cells (CHO K1 cells, European Collection of Cell Cultures (ECACC), Great Britain) are stably transfected with the VR1 gene. For functional investigations, these cells are plated out onto poly-D-lysine-coated, black 96 well plates with a clear bottom (BD Biosciences, Heidelberg, Germany) at a density of 25,000 cells/well. The cells are incubated overnight at 37° C. and 5% CO2 in a culture medium (Ham's Nutrient Mixture F12, 10 vol. % FCS (foetal calf serum), 18 μg/mL L-proline). On the following day, the cells are incubated with Fluo-4 (Fluo-4 2 μM, Pluronic F127 0.01 vol. %, Molecular Probes in HBSS (Hank's buffered saline solution), Gibco Invitrogen GmbH, Karlsruhe, Germany) for 30 minutes at 37° C. The plates are then washed 3 times with HBSS buffer and, after a further 15 minutes' incubation at room temperature, used for […] measurement in the FLIPR. […] Quantification proceeds by measuring the highest fluorescence intensity (FC, fluorescence counts) over time.
The FLIPR protocol comprises 2 additions of substance. The substances to be tested (10 μM) are firstly pipetted onto the cells and Ca^2+ influx is compared with the control (capsaicin 10 μM) (% activation relative to the Ca^2+ signal after addition of 10 μM of capsaicin). After 5 minutes' incubation, 100 nM of capsaicin are added and the influx of Ca^2+ is again determined.
The percentage inhibition in comparison with the maximum achievable inhibition with 10 μM capsaicin is calculated.

Assay [2] addresses VR1/TRPV1 receptor (Homo sapiens, UniProt Q8NER1). Briefly: IC50 (human) after pH stimulus. In kind it is cell-based. Particulars: for IC50: table 4; for inhibition in percent, IC50 (human) after pH stimulus / inhibition at 1 µM: @ 1 μM, ne = no effect; for inhibition at 5 µM / inhibition at 10 µM / inhibition at 0.1 µM / inhibition at 1 µM: read-out: inhibition in percent, IC50 (human) after pH stimulus.

T1 sequence (Q8NER1 whole entry): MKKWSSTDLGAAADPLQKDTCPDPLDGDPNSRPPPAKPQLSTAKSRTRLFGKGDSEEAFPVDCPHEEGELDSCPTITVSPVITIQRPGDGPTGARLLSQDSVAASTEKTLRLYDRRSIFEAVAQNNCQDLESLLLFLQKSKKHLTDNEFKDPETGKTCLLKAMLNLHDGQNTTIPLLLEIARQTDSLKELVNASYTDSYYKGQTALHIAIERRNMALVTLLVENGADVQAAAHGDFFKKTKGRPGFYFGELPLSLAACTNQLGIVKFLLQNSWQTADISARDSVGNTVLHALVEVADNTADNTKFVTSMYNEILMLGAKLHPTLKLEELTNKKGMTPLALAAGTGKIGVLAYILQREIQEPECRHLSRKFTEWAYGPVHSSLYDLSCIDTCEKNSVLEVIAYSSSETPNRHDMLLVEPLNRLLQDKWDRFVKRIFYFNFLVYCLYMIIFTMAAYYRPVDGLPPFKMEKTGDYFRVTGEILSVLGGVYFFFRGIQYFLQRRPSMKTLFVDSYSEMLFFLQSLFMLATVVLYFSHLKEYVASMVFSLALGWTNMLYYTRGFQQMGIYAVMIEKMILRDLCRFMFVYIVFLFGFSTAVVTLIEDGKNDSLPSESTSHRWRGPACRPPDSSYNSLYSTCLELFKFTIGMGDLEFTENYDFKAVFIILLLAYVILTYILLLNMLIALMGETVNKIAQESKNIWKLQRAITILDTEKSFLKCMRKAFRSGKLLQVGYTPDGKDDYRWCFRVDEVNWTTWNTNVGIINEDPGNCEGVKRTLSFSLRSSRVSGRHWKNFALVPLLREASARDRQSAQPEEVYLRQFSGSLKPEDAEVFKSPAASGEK
Sequence of VR1/TRPV1 receptor (Q8NER1 whole entry): as above

One may read the Ki as a dissociation constant, usually derived from enzyme kinetics or from competition with a known ligand. Usually IC50 stands for the concentration that gives 50% inhibition. Consider `CC1CCN(c2nc(C(F)F)ccc2CNC(=O)C(C)c2ccc(NS(C)(=O)=O)c(F)c2)CC1` (centres unmarked) [Example 315, N-(6′-difluoromethyl-4-methyl-3,4,5,6-tetrahydro-2H-[1,2′]bipyridinyl-3′-ylmethyl)-2-(3-fluoro-4-methylsulfonamido-phenyl)-propionamide], for which the Ki in assay [1] is 1 nM. This compound also displayed an IC50 in assay [2] of 295 nM.
Take `Cc1ccc(CNC(=O)C(C)c2ccc(NS(C)(=O)=O)c(F)c2)c(N2CCC(C)CC2)n1` (centres unmarked) [Example 316, N-(4,6′-dimethyl-3,4,5,6-tetrahydro-2H-[1,2′]bipyridinyl-3′-ylmethyl)-2-(3-fluoro-4-methylsulfonamido-phenyl)-propionamide]: the Ki in assay [1] amounted to 72.1 nM. Further, the “inhibition in percent, IC50 (human) after pH stimulus” value in assay [2] is “ne @ 1 μM”.
For the compound `CC(C(=O)NCc1ccc(C(F)(F)F)nc1N1CC=C(c2ccccc2)CC1)c1ccc(NS(C)(=O)=O)c(F)c1` (centres unmarked) [Example 317, 2-(3-fluoro-4-methylsulfonamido-phenyl)-N-(4-phenyl-6′-trifluoromethyl-3,6-dihydro-2H-[1,2′]bipyridinyl-3′-ylmethyl)-propionamide], the Ki in assay [1] is 1.7 nM. The IC50 in assay [2] is 43 nM.
Usually inhibition stands for how much of the control response was suppressed. `Cc1cc(C(F)(F)F)nc(N2CCC(C)CC2)c1CNC(=O)C(C)c1ccc(NS(C)(=O)=O)c(F)c1` (centres unmarked) [Example 318, N-(4,4′-dimethyl-6′-trifluoromethyl-3,4,5,6-tetrahydro-2H-[1,2′]bipyridinyl-3′-ylmethyl)-2-(3-fluoro-4-methylsulfonamido-phenyl)-propionamide]: the Ki in assay [1] worked out at 17.5 nM. In addition, in assay [2], the inhibition at 5 µM was found to be 4% and the inhibition at 10 µM stood at 32%.
For `CC(C(=O)NCc1ccc(C(F)(F)F)cc1N1CCN(C2CCCCC2)CC1)c1ccc(NS(C)(=O)=O)c(F)c1` (centres unmarked) [Example 319, N-[2-(4-cyclohexyl-piperazin-1-yl)-4-trifluoromethyl-benzyl]-2-(3-fluoro-4-methylsulfonamido-phenyl)-propionamide], in assay [1], the Ki worked out at 13.8 nM. Moreover, in assay [2], the inhibition at 5 µM worked out at 38% and the inhibition at 10 µM stood at 54%.
In the case of `CC(C(=O)NCc1ccc(C(F)(F)F)cc1-c1ccc(C(C)(C)C)cc1)c1ccc(NS(C)(=O)=O)c(F)c1` (centres unmarked) [Example 320, N-(4′-tert-butyl-5-trifluoromethyl-biphenyl-2-ylmethyl)-2-(3-fluoro-4-methylsulfonamido-phenyl)-propionamide], the Ki in assay [1] came out at 1.1 nM. This compound returned an IC50 in assay [2] of 36 nM.
On to `COc1ccc(-c2cc(C(F)(F)F)ccc2CNC(=O)C(C)c2ccc(NS(C)(=O)=O)c(F)c2)cc1` (centres unmarked) [Example 321, 2-(3-fluoro-4-methylsulfonamido-phenyl)-N-(4′-methoxy-5-trifluoromethyl-biphenyl-2-ylmethyl)-propionamide], for which the Ki in assay [1] was 0.8 nM. For the same compound, the half-inhibitory concentration (IC50) in assay [2] is 38 nM.
On to `CC(C(=O)NCc1ccc(C(F)(F)F)cc1-c1cccc(F)c1)c1ccc(NS(C)(=O)=O)c(F)c1` (centres unmarked) [Example 323, 2-(3-fluoro-4-methylsulfonamido-phenyl)-N-(3′-fluoro-5-trifluoromethyl-biphenyl-2-ylmethyl)-propionamide], for which the Ki in assay [1] stood at 1.9 nM. Further, in assay [2], the inhibition at 0.1 µM was 15% and the inhibition at 1 µM is 41%.
As for `COc1ccc(-c2cc(C(F)(F)F)ccc2CNC(=O)C(C)c2ccc(NS(C)(=O)=O)c(F)c2)cc1OC` (centres unmarked) [Example 325, N-(3′,4′-dimethoxy-5-trifluoromethyl-biphenyl-2-ylmethyl)-2-(3-fluoro-4-methylsulfonamido-phenyl)-propionamide], the Ki in assay [1] stood at 8.6 nM. Also, 716 nM corresponded to half-maximal inhibition in assay [2] (IC50).
As for `COc1ccc(-c2nc(C(F)(F)F)ccc2CNC(=O)C(C)c2ccc(NS(C)(=O)=O)c(F)c2)cc1OC` (centres unmarked) [Example 326, N-[2-(3,4-dimethoxy-phenyl)-6-trifluoromethyl-pyridin-3-ylmethyl]-2-(3-fluoro-4-methylsulfonamido-phenyl)-propionamide], in assay [1], the Ki is 25.6 nM. The inhibition at 10 µM in assay [2] was determined as 66%.
Turning to `CC(C(=O)NCc1ccc(C(F)(F)F)nc1OCC1CCN(C(=O)OC(C)(C)C)CC1)c1ccc(NS(C)(=O)=O)c(F)c1` (centres unmarked) [Example 327, 4-(3-{[2-(3-fluoro-4-methylsulfonamido-phenyl)-propionylamino]-methyl}-6-trifluoromethyl-pyridin-2-yloxymethyl)-piperidine-1-carbonic acid tert-butyl ester], in assay [1], the inhibitory constant (Ki) came out at 3.4 nM. This compound also had an IC50 in assay [2] of 342 nM.
In the same order, the values of `CCCCCOc1nc(C(C)(C)C)ccc1CNC(=O)C(C)c1ccc(NS(C)(=O)=O)c(F)c1` (centres unmarked) [Example 328, N-(6-tert-butyl-2-pentyloxy-pyridin-3-ylmethyl)-2-(3-fluoro-4-methylsulfonamido-phenyl)-propionamide] are 0.8 nM and 128 nM.
On to `CCCN(CCC)c1nc(C(F)(F)F)ccc1CNC(=O)C(C)c1ccc(NS(C)(=O)=O)c(C)c1` (centres unmarked) [Example 331, N-(2-dipropylamino-6-trifluoromethyl-pyridin-3-ylmethyl)-2-(4-methylsulfonamido-3-methyl-phenyl)-propionamide], for which the Ki in assay [1] was found to be 0.7 nM. Further, the inhibition at 10 µM in assay [2] was 31%.
Consider `CC(C(=O)NCc1ccc(C(F)(F)F)nc1N1CC=C(c2ccc(F)cc2)CC1)c1ccc(NS(C)(=O)=O)c(F)c1` (centres unmarked) [Example 332, 2-(3-fluoro-4-methylsulfonamido-phenyl)-N-[4-(4-fluoro-phenyl)-6′-trifluoromethyl-3,6-dihydro-2H-[1,2′]bipyridinyl-3′-ylmethyl]-propionamide], for which the Ki in assay [1] was 2.4 nM. Moreover, in assay [2], 159 nM corresponded to half-maximal inhibition (IC50).
Take `CC(C(=O)NCc1ccc(C(F)(F)F)nc1C1=CCCCC1)c1ccc(NS(C)(=O)=O)c(F)c1` (centres unmarked) [Example 334, N-(2-cyclohex-1-enyl-6-trifluoromethyl-pyridin-3-ylmethyl)-2-(3-fluoro-4-methylsulfonamido-phenyl)-propionamide]: the Ki in assay [1] is 0.7 nM. Also, inhibition in assay [2] was half-maximal at 99 nM (IC50).
Turning to `CCC(CC)Oc1nc(C(F)(F)F)ccc1CNC(=O)C(C)c1ccc(NS(C)(=O)=O)c(F)c1` (centres unmarked) [Example 335, N-[2-(1-ethyl-propoxy)-6-trifluoromethyl-pyridin-3-ylmethyl]-2-(3-fluoro-4-methylsulfonamido-phenyl)-propionamide], the inhibition constant (Ki) in assay [1] was found to be 1.1 nM. Further, the “inhibition in percent, IC50 (human) after pH stimulus” value in assay [2] is “ne @ 1 μM”.
Turning to `CCCC(CCC)Oc1nc(C(F)(F)F)ccc1CNC(=O)C(C)c1ccc(NS(C)(=O)=O)c(F)c1` (centres unmarked) [Example 336, 2-(3-fluoro-4-methylsulfonamido-phenyl)-N-[2-(1-propyl-butoxy)-6-trifluoromethyl-pyridin-3-ylmethyl]-propionamide], the inhibition constant Ki in assay [1] was found to be 0.7 nM. In assay [2], the inhibition at 0.1 µM was 35% and the inhibition at 1 µM was found to be 50%.
Consider `CC(C)CC(CC(C)C)Oc1nc(C(F)(F)F)ccc1CNC(=O)C(C)c1ccc(NS(C)(=O)=O)c(F)c1` (centres unmarked) [Example 337, 2-(3-fluoro-4-methylsulfonamido-phenyl)-N-[2-(1-isobutyl-3-methyl-butoxy)-6-trifluoromethyl-pyridin-3-ylmethyl]-propionamide], for which the Ki in assay [1] was 0.7 nM. Also, in assay [2], the inhibition at 5 µM was found to be 6% and the inhibition at 10 µM amounted to 30%.

The record behind these values is US8710233B2 (Gruenenthal GmbH, priority 2005, dated 2014).
